The melting point is the temperature of the solid-liquid transition. As to `CSc1ccc(-c2nc(-c3cccc(C)c3)c(-c3ccnc(NCCc4ccccc4)c3)s2)cc1` [D 19-18, N-[4-[4-(3-methylphenyl)-2-(4-methylthiophenyl)-1,3-thiazol-5-yl]-2-pyridyl]-N-(2-phenylethyl)amine], the melting point lay within 137 to 139 °C.
The same measure for `CSc1ccc(-c2nc(-c3cccc(C)c3)c(-c3ccnc(NCCCc4ccccc4)c3)s2)cc1` [D 19-19, N-[4-[4-(3-methylphenyl)-2-(4-methylthiophenyl)-1,3-thiazol-5-yl]-2-pyridyl]-N-(3-phenylpropyl)amine]: 106 to 107 °C; for `CSc1ccc(-c2nc(-c3cccc(C)c3)c(-c3ccnc(NCc4ccc5ccccc5c4)c3)s2)cc1` [D 19-20, N-[4 [4 (3 methylphenyl)-2 (4 methylthiophenyl)-1,3 thiazol-5 yl]-2 pyridyl]-N-(2-naphthylmethyl)amine]: 144 to 145 °C; for `Cc1cccc(-c2nc(-c3ccc(S(C)(=O)=O)cc3)sc2-c2ccnc(NC(=O)c3cccs3)c2)c1` [D 21-3, N-[4 [4 (3 methylphenyl)-2-(4 methylsulfonylphenyl)-1,3 thiazol-5 yl]-2 pyridyl]-2-thiophenecarboxamide]: 199 to 201 °C.
As to `Cc1cccc(-c2nc(-c3ccc(S(C)(=O)=O)cc3)sc2-c2ccnc(NC(=O)c3ccc4ccccc4c3)c2)c1` [D 21-4, N-[4 [4 (3 methylphenyl)-2-(4 methylsulfonylphenyl)-1,3 thiazol-5 yl]-2 pyridyl]-2-naphthamide], the melting point fell in the range of 231 to 233 °C.
With `Cc1cccc(-c2nc(-c3ccc(S(C)(=O)=O)cc3)sc2-c2ccnc(NCCCc3ccccc3)c2)c1` [D 21-6, N-[4-[4-(3-methylphenyl)-2-(4-methylsulfonylphenyl)-1,3-thiazol-5-yl]-2-pyridyl]-N-(3-phenylpropyl)amine] the figure was 167 to 168 °C; with `Cc1cccc(-c2nc(-c3ccc(S(C)(=O)=O)cc3)sc2-c2ccnc(NCc3ccc4ccccc4c3)c2)c1` [D 21-7, N-[4 [4 (3 methylphenyl)-2-(4 methylsulfonylphenyl)-1,3 thiazol-5 yl]-2 pyridyl]-N-(2-naphthylmethyl)amine], 167 to 168 °C; with `Cc1cccc(-c2nc(-c3ccc(S(C)(=O)=O)cc3)sc2-c2ccnc(N(C)CCc3ccccc3)c2)c1` [D 25-4, N-methyl-N-[4 [4 (3-methylphenyl)-2 (4 methylsulfonylphenyl)-1,3 thiazol-5 yl]-2 pyridyl]-N-(2 phenylethyl)amine], 116 to 117 °C.
The same measure for `Cc1cccc(-c2nc(-c3ccc(S(C)(=O)=O)cc3)sc2-c2ccnc(NCc3cccs3)c2)c1` [D 25-5, N-[4 [4 (3 methylphenyl)-2-(4 methylsulfonylphenyl)-1,3 thiazol-5 yl]-2 pyridyl]-N-(2-thienylmethyl)amine]: 107 to 109 °C; for `Cc1cccc(-c2nc(-c3ccc(S(C)(=O)=O)cc3)sc2-c2ccnc(SCc3ccccc3)c2)c1` [D 27, 5 (2 benzylthio-4 pyridyl)-4 (3-methylphenyl)-2 (4 methylsulfonylphenyl)-1,3 thiazole]: 182 to 185 °C.
With `COc1ccc(-c2nc(N)sc2-c2ccnc(N)c2)cc1` [H 1, [5 (2 amino-4 pyridyl)-4 (4 methoxyphenyl)-1,3 thiazol-2-yl]amine] the figure was 251 to 254 °C; with `Nc1nc(-c2ccc(F)cc2)c(-c2ccnc(F)c2)s1` [H 7-3, [4 (4 fluorophenyl)-5 (2-fluoro-4 pyridyl)-1,3 thiazol-2 yl]amine], 243 to 245 °C; with `Cc1cccc(-c2nc(N)sc2-c2ccnc(C)c2)c1` [H 7-4, [4-(3-methylphenyl)-5-(2-methyl-4-pyridyl)-1,3-thiazol-2-yl]amine], 205 to 206 °C.
`Cc1cc(C)cc(-c2nc(N)sc2-c2ccnc(C)c2)c1` [H 7-5, [4 (3,5 dimethylphenyl)-5-(2 methyl-4 pyridyl)-1,3 thiazol-2 yl]amine] displayed a melting point of 219 to 220 °C.
The same measure for `Cc1cccc(N2C=C(c3cc(C)nc(C)c3)SC2N)c1` (stereo not shown) [H 7-6, [5 (2,6 dimethyl-4-pyridyl)-3 (3 methylphenyl)-1,3 thiazol-2 yl]amine]: 214 to 216 °C; for `Cc1cc(C)cc(-c2nc(N)sc2-c2cc(C)nc(C)c2)c1` [H 7-7, [4 (3,5 dimethylphenyl)-5-(2,6 dimethyl-4 pyridyl)-1,3 thiazol-2 yl]amine]: 256 to 258 °C; for `Cc1cc(-c2sc(N)nc2-c2ccc(F)cc2)ccn1` [H 7-8, [4 (4 fluorophenyl)-5 (2-methyl-4 pyridyl)-1,3 thiazol-2 yl]amine]: 233 to 234 °C.
As for `Cc1cccc(-c2nc(-c3ccccc3Cl)sc2-c2ccnc(C)c2)c1` [H 14-1, 2 (2 chlorophenyl)-4 (3-methylphenyl)-5 (2 methyl-4 pyridyl)-1,3 thiazole], the melting point fell in the range of 83 to 84 °C.
With `Cc1cccc(-c2nc(-c3ccc(Cl)cc3)sc2-c2ccnc(C)c2)c1` [H 14-2, 2 (4 chlorophenyl)-4 (3-methylphenyl)-5 (2 methyl-4 pyridyl)-1,3 thiazole] the figure was 104 to 105 °C; with `Cc1cccc(-c2nc(-c3ccccc3F)sc2-c2ccnc(C)c2)c1` [H 14-3, 2 (2 fluorophenyl)-4 (3-methylphenyl)-5 (2 methyl-4 pyridyl)-1,3 thiazole], 73 to 74 °C.
`Cc1cccc(-c2nc(-c3ccc(F)cc3)sc2-c2ccnc(C)c2)c1` [H 14-4, 2 (4 fluorophenyl)-4 (3-methylphenyl)-5 (2 methyl-4 pyridyl)-1,3 thiazole] yielded a melting point of 89 to 91 °C.
Compound `Cc1cccc(-c2nc(-c3ccc(F)cc3F)sc2-c2ccnc(C)c2)c1` [H 14-5, 2 (2,4 difluorophenyl)-4-(3 methylphenyl)-5 (2 methyl-4 pyridyl)-1,3 thiazole] displayed a melting point of 90 to 91 °C.
The same measure for `Cc1cccc(-c2nc(-c3ccccc3)sc2-c2ccnc(C)c2)c1` [H 14-6, 4 (3 methylphenyl)-5 (2-methyl-4 pyridyl)-2 phenyl-1,3 thiazole]: 79 to 80 °C.
The same measure for `Cc1cccc(-c2nc(Cc3ccccc3)sc2-c2ccnc(C)c2)c1` [H 14-7, 4 (3 methylphenyl)-5 (2-methyl-4 pyridyl)-2 (phenylmethyl)-1,3 thiazole]: 82 to 84 °C; for `Cc1cccc(-c2nc(CCc3ccccc3)sc2-c2ccnc(C)c2)c1` [H 14-8, 4 (3 methylphenyl)-5 (2-methyl-4 pyridyl)-2 (2 phenylethyl)-1,3 thiazole]: 64 to 65 °C.
With `CCOC(=O)c1nc(-c2cccc(C)c2)c(-c2ccnc(C)c2)s1` [H 14-12, ethyl [4 (3-methylphenyl)-5 (2 methyl-4 pyridyl)-1,3 thiazol-2-yl]carboxylate] the figure was 97 to 98 °C.
Regarding `Cc1cccc(-c2nc(N3CCN(C)CC3)sc2-c2ccnc(C)c2)c1` [H 14-13, 4 (3 methylphenyl)-2 (4-methylpiperazin-1 yl)-5 (2 methyl-4 pyridyl)-1,3 thiazole], the melting point lay within 115 to 116 °C.
With `CSc1ccc(-c2nc(-c3cccc(C)c3)c(-c3ccnc(F)c3)s2)cc1` [H 15, 5-(2-fluoro-4-pyridyl)-4-(3-methylphenyl)-2-[4-(methylthio)phenyl]-1,3-thiazole] the figure was 97 to 100 °C.

The values above are taken from US20050080113A1, “Medicinal compositions” (priority 2001, published 2005).
